Measurements: ChEMBL document CHEMBL1124522, “Synthesis and antitumor activity of 5-deaza-5,6,7,8-tetrahydrofolic acid and its N10-substituted analogues” (J Med Chem, 1989)

Key:
CCRF-CEM = assay: Compound was tested for its antitumor activity against human lymphoblastic leukemic cells(CCRF-CEM) in vitro; format: functional, cell-based; conditions: ccrf-cem
[1] = Percent inhibition against 6C3HED lymphosarcoma at dose 50 mg/kg in C3H mice; format: functional; conditions: Mus musculus
[2] = Percent inhibition against 6C3HED lymphosarcoma at dose 100 mg/kg in C3H mice; format: functional; conditions: Mus musculus
[3] = Percent inhibition against 6C3HED lymphosarcoma at dose 12.5 mg/kg in C3H mice; format: functional; conditions: Mus musculus
[4] = In vivo antitumor activity (toxic/total) at dose 12.5 mg/kg in C3H mice with transplantable murine solid tumor C3H mammary adenocarcinoma; Compound was tested on 10 mice.; format: functional, Mus musculus
[5] = In vivo antitumor activity (toxic/total) at dose 25 mg/kg in C3H mice with transplantable murine solid tumor C3H mammary adenocarcinoma; Compound was tested on 10 mice.; format: functional, Mus musculus
[6] = In vivo antitumor activity (toxic/total) at dose 50 mg/kg in C3H mice with transplantable murine solid tumor C3H mammary adenocarcinoma; Compound was tested on 10 mice.; format: functional, Mus musculus
[7] = In vivo anti tumor activity (toxic/total) at dose 12.5 mg/kg in C3H mice with transplantable murine solid tumor 6C3HED lymphosarcoma; Compound was tested on 10 mice.; format: functional, Mus musculus
[8] = In vivo anti tumor activity (toxic/total) at dose 25 mg/kg in C3H mice with transplantable murine solid tumor 6C3HED lymphosarcoma; Compound was tested on 10 mice.; format: functional, Mus musculus
[9] = In vivo anti tumor activity (toxic/total) at dose 50 mg/kg in C3H mice with transplantable murine solid tumor 6C3HED lymphosarcoma; Compound was tested on 10 mice.; format: functional, Mus musculus
[10] = Percent inhibition against C3H mammary adenocarcinoma at dose 12.5 mg/kg in C3H mice; format: functional; conditions: Mus musculus
[11] = Percent inhibition against C3H mammary adenocarcinoma at dose 25 mg/kg in C3H mice; format: functional; conditions: Mus musculus
[12] = Percent inhibition against C3H mammary adenocarcinoma at dose 50 mg/kg in C3H mice;Compound was toxic.; format: ADME, organism-based; set-up: dose 50 mg/kg; conditions: mouse, in vivo
[13] = In vivo anti tumor activity (toxic/total) at dose 100 mg/kg in C3H mice with transplantable murine solid tumor 6C3HED lymphosarcoma; Compound was tested on 10 mice.; format: functional, Mus musculus
[14] = Percent inhibition against 6C3HED lymphosarcoma at dose 25 mg/kg in C3H mice; format: functional; conditions: Mus musculus
[15] = target: T1, Folylpolyglutamate synthase, mitochondrial (Mus musculus) (UniProt P48760); assay: Apparent catalytic rate constants (Km) owas determined from mouse liver Folyl-polyglutamate synthase
T1 sequence (whole entry): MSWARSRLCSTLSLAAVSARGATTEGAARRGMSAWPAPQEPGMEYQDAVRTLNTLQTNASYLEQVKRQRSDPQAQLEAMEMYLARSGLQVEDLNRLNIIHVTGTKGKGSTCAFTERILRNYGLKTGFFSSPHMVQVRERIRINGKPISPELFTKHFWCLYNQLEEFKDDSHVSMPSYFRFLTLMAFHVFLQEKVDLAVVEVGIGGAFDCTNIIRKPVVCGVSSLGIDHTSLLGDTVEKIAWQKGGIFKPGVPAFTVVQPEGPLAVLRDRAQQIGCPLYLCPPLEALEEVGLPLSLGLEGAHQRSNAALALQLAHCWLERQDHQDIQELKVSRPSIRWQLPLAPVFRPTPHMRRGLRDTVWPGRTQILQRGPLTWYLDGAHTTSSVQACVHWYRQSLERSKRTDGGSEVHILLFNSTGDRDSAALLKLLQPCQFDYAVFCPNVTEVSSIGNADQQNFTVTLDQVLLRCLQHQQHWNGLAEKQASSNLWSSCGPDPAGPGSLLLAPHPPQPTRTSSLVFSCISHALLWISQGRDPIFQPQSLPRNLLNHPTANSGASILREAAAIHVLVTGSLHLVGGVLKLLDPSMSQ

[16] = target: T1, Folylpolyglutamate synthase, mitochondrial (Mus musculus); assay: First order catalytic rate constants (k) was determined from mouse liver Folyl-polyglutamate synthase
[17] = substrate: Nc1nc(N)c2nc(CNc3ccc(C(=O)N[C@@H](CCC(=O)O)C(=O)O)cc3)cnc2n1; assay: (§1) Catalytic rate constants (Vmax) was determined from mouse liver Folyl-polyglutamate synthase
[18] = substrate: Nc1nc(O)c2c(n1)NCC(CNc1ccc(C(=O)N[C@@H](CCC(=O)O)C(=O)O)cc1)C2; assay: as §1
[19] = substrate: Nc1nc2c(c(=O)[nH]1)C[C@@H](CCc1ccc(C(=O)N[C@@H](CCC(=O)O)C(=O)O)cc1)CN2; assay: as §1
[20] = substrate: Nc1nc(=O)c2nc(CNc3ccc(C(=O)N[C@@H](CCC(=O)O)C(=O)O)cc3)cnc2[nH]1; assay: Catalytic rate folyl-poly-glutamate synthetase

In the case of `Nc1nc(O)c2c(n1)NCC(CNc1ccc(C(=O)N[C@@H](CCC(=O)O)C(=O)O)cc1)C2` (stereo in doubt; 7a-A), the IC50 (CCRF-CEM) is reported as 6 nM.

With `Nc1nc(O)c2c(n1)NCC(CN(C=O)c1ccc(C(=O)N[C@@H](CCC(=O)O)C(=O)O)cc1)C2` (stereo in doubt; 7b) the inhibition in vivo at 50 mg/kg [1] was 100%, the inhibition in vivo at 100 mg/kg [2] was 100% and the inhibition in vivo at 12.5 mg/kg [3] was 95%. For the same molecule, the tox/total [4] was 0, the tox/total [5] was 6 and the tox/total [6] was 10. The IC50 (CCRF-CEM) was 50 nM, the tox/total [7] was 1 and the tox/total [8] was 1. For the same molecule, the tox/total [9] was 5, the inhibition in vivo at 12.5 mg/kg [10] was 86% and the inhibition in vivo at 25 mg/kg [11] was 98%. The Inhibition [12] was “Toxic”, the tox/total [13] was 7 and the inhibition in vivo at 25 mg/kg [14] was 100%.

`Nc1nc2c(c(=O)[nH]1)C[C@@H](CCc1ccc(C(=O)N[C@@H](CCC(=O)O)C(=O)O)cc1)CN2` (stereo in doubt; form 1) [LOMETREXOL] showed an IC50 (CCRF-CEM) of 8 nM.

Molecule `Nc1nc2c(c(=O)[nH]1)C[C@@H](CCc1ccc(C(=O)N[C@@H](CCC(=O)O)C(=O)O)cc1)CN2` (stereo in doubt; form 2) [LOMETREXOL] has an IC50 (CCRF-CEM) of 5 nM.

Molecule `Nc1nc2c(c(=O)[nH]1)C[C@@H](CCc1ccc(C(=O)N[C@@H](CCC(=O)O)C(=O)O)cc1)CN2` (stereo in doubt; form 3) has a Km app [15] of 7.3 µM and a k [16] of 32.

`Nc1nc2c(c(=O)[nH]1)C[C@@H](CCc1ccc(C(=O)N[C@@H](CCC(=O)O)C(=O)O)cc1)CN2` (stereo in doubt; form 3) [LOMETREXOL] showed an IC50 (CCRF-CEM) of 20 nM.

B1: Folylpolyglutamate synthase, mitochondrial (Mus musculus), P48760 (protein)
chain: MSWARSRLCSTLSLAAVSARGATTEGAARRGMSAWPAPQEPGMEYQDAVRTLNTLQTNASYLEQVKRQRSDPQAQLEAMEMYLARSGLQVEDLNRLNIIHVTGTKGKGSTCAFTERILRNYGLKTGFFSSPHMVQVRERIRINGKPISPELFTKHFWCLYNQLEEFKDDSHVSMPSYFRFLTLMAFHVFLQEKVDLAVVEVGIGGAFDCTNIIRKPVVCGVSSLGIDHTSLLGDTVEKIAWQKGGIFKPGVPAFTVVQPEGPLAVLRDRAQQIGCPLYLCPPLEALEEVGLPLSLGLEGAHQRSNAALALQLAHCWLERQDHQDIQELKVSRPSIRWQLPLAPVFRPTPHMRRGLRDTVWPGRTQILQRGPLTWYLDGAHTTSSVQACVHWYRQSLERSKRTDGGSEVHILLFNSTGDRDSAALLKLLQPCQFDYAVFCPNVTEVSSIGNADQQNFTVTLDQVLLRCLQHQQHWNGLAEKQASSNLWSSCGPDPAGPGSLLLAPHPPQPTRTSSLVFSCISHALLWISQGRDPIFQPQSLPRNLLNHPTANSGASILREAAAIHVLVTGSLHLVGGVLKLLDPSMSQ
For B1, the Vmax [17] was 1.59, the Vmax [18] was 1.3 and the Vmax [19] was 1.26. The Vmax [20] was 1.
